Reference: article PMC12728655, “Engineering an Artificial Myxopyronin Derivative with Enhanced Metabolic Stability via Mutasynthesis” (JACS Au, 2025)
In brackets after ≈: the same amount, converted by molar mass.

Tested on: Rif^R-M. tuberculosis H37Rv
Experiment: microbe, parasite or virus in culture
Format: cell-based
Settings: Mycobacterium tuberculosis

SMILES	MIC [µg/mL]
CCC/C(C)=C/C=C(\C)C(=O)c1c(O)cc([C@H](C)CC/C=C/NC(=O)OC)oc1=O [MYX A (1), myxopyronins A]	2 to 4 (≈ 4.79 to 9.58 µM)
CO[C@H]1/C=C/O[C@@]2(C)Oc3c(C)c(O)c4c(O)c(c(/C=N/N5CCN(C)CC5)c(O)c4c3C2=O)NC(=O)/C(C)=C\C=C\[C@H](C)[C@H](O)[C@@H](C)[C@@H](O)[C@@H](C)[C@H](OC(C)=O)[C@@H]1C [rifampin]	> 64
COC(=O)N/C=C/CC[C@@H](C)c1cc(O)c(C(=O)/C(C)=C/C=C(\C)CCC(F)(F)F)c(=O)o1 [MYX (8)]	1 (≈ 2.12 µM)
